In ChEMBL document CHEMBL5214970, “Discovery and optimization of orally bioavailable and potent plasma Kallikrein inhibitors bearing a quaternary carbon” (Bioorg Med Chem, 2022):

Key:
Plasma kallikrein [1] = molecular target: T1, Plasma kallikrein (Homo sapiens, UniProt P03952); assay: Inhibition of endogenous human plasma kallikrein using Z-Phe-Arg-AMC.HCl as substrate measured after 5 mins by microplate reader analysis
[2] = Cmax in Sprague-Dawley rat at 10 mg/kg,po; assay type: ADME, organism-based; parameters: dose 10 mg/kg, route po; conditions: in vivo
Plasma kallikrein [3] = molecular target: T1, Plasma kallikrein; assay: Inhibition of purified human plasma kallikrein using H-D-Pro-Phe-Arg-pNA.2HCl as substrate measured after 3 mins by microplate reader analysis
[4] = AUC (0 to 24hrs) in Sprague-Dawley rat at 10 mg/kg,po; assay type: ADME, organism-based; parameters: time < 24 hr, dose 10 mg/kg, route po; conditions: in vivo; for AUC(0-t) at 24 h: Sprague-Dawley
[5] = Cmin in Sprague-Dawley rat at 10 mg/kg,po measured after 24 hrs; assay type: ADME, organism-based; conditions: in vivo; for concentration at 24 h: Sprague-Dawley, read-out: Cmin

T1 sequence (P03952 20-390 limits assumed): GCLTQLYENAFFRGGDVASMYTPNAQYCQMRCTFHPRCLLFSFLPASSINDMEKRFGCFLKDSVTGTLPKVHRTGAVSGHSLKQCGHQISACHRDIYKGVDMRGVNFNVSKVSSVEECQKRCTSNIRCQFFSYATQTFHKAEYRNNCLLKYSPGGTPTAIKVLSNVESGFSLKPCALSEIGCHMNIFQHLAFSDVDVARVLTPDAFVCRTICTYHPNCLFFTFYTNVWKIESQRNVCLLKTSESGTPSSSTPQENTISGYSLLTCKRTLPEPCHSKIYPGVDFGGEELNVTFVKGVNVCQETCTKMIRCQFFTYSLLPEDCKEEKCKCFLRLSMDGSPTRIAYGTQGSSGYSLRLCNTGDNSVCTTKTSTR
T1 sequence (P03952 391-638 limits assumed): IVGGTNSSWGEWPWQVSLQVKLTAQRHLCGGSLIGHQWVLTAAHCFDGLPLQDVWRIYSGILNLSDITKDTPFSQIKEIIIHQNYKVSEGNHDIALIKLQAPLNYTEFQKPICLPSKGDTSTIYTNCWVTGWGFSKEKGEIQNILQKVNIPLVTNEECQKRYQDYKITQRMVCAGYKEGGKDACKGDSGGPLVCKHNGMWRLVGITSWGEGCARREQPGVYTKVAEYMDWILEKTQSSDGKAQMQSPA

IC50 (Plasma kallikrein [1]) [µM] | Cmax ([2]; Sprague-Dawley, read-out: Cmax) [ng/mL] | IC50 (Plasma kallikrein [3]) [µM] | AUC(0-t) at 24 h [4] [ng·h/mL] | concentration at 24 h [5] [ng/mL] | Cmax [2] [ng/mL] | AUC ([4]; 24 h) [ng·h/mL] | Cmin ([5]; po, 10 mg/kg, 24 h) [ng/mL] | SMILES
0.0032 | 429 | 0.0013 | 3330 | 56.5 |  |  |  | N#Cc1cccc(C(N)(CCC2CC2)c2ccc(F)c(NC(=O)c3cc(C(F)(F)F)nn3-c3cccc(CN)c3)c2)c1 (stereo in doubt; 37)
0.006 | 17 | 0.0013 | 306 | 9.4 |  |  |  | NCc1cccc(-n2nc(C(F)(F)F)cc2C(=O)Nc2cc(C(N)(CCC3CC3)c3cccc(C(N)=O)c3)ccc2F)c1 (stereo unspecified)
0.382 |  | 0.234 |  |  |  |  |  | N#Cc1cccc(C(N)(CCC2CC2)c2ccc(F)c(NC(=O)c3cc(C(F)(F)F)nn3-c3cccc(CN)c3)c2)c1 (stereo in doubt; 38)
0.0038 |  | 0.0009 |  |  |  |  |  | NCc1cccc(-n2nc(C(F)(F)F)cc2C(=O)Nc2cc(C(N)(CCC3CC3)c3ccc(C(N)=O)cc3)ccc2F)c1 (stereo unspecified)
0.165 |  | 0.18 |  |  |  |  |  | NCc1cccc(-n2nc(C(F)(F)F)cc2C(=O)Nc2cc(C(O)(CCC3CC3)c3ccncc3)ccc2F)c1 (stereo in doubt; 26)
0.264 |  | 0.059 |  |  |  |  |  | NCc1cccc(-n2nc(C(F)(F)F)cc2C(=O)Nc2cccc(C(O)(CCC3CC3)c3cccnc3)c2)c1 (stereo in doubt; 19)
 | 383 |  | 1440 | 13 |  |  |  | NCc1cccc(-n2nc(C(F)(F)F)cc2C(=O)Nc2cc(C(O)(CCC3CC3)c3cccnc3)ccc2F)c1 (stereo in doubt; 20)
1.19 |  | 0.062 |  |  |  |  |  | NCc1cccc(-n2nc(C(F)(F)F)cc2C(=O)Nc2cccc(C(O)(CCC3CC3)c3ccccc3)c2)c1 (stereo in doubt; 11)
0.076 |  | 0.118 |  |  |  |  |  | NCc1cccc(-n2nc(C(F)(F)F)cc2C(=O)Nc2cc(C(N)(CCC3CC3)c3ccncc3)ccc2F)c1 (stereo in doubt; 34)
 | 157 |  | 960 | 15.1 |  |  |  | NCc1cccc(-n2nc(C(F)(F)F)cc2C(=O)Nc2cc(C(N)(CCC3CC3)c3ccccn3)ccc2F)c1 (stereo in doubt; 29)
0.012 | 676 | 0.0029 | 2890 | 53.3 |  |  |  | N#Cc1cccc(C(N)(CCC2CC2)c2ccc(F)c(NC(=O)c3cc(C(F)(F)F)nn3-c3cccc(CN)c3)c2)n1 (stereo unspecified)
2.03 |  | 0.0104 |  |  |  |  |  | NCc1cccc(-n2nc(C(F)(F)F)cc2C(=O)Nc2cccc(C(CCC3CC3)c3ccccc3)c2)c1 (stereo unspecified)
0.178 |  | 0.059 |  |  |  |  |  | NCc1cccc(-n2nc(C(F)(F)F)cc2C(=O)Nc2cccc(C(O)(CCC3CC3)c3ccncc3)c2)c1 (stereo in doubt; 24)
0.003 | 93 | 0.0015 | 825 | 22.9 |  |  |  | NCc1cccc(-n2nc(C(F)(F)F)cc2C(=O)Nc2cc(C(N)(CCC3CC3)c3ccncc3)ccc2F)c1 (stereo in doubt; 33)
 | 190 |  | 888 | 9.62 |  |  |  | NCc1cccc(-n2nc(C(F)(F)F)cc2C(=O)Nc2cc(C(N)(CCC3CC3)c3cccnc3)ccc2F)c1 (stereo in doubt; 31)
0.056 |  | 0.0012 |  |  |  |  |  | NCc1cccc(-n2nc(C(F)(F)F)cc2C(=O)Nc2cccc(C(O)(CCC3CC3)c3ccccc3)c2)c1 (stereo in doubt; 10)
0.009 | 51 | 0.0019 | 128 |  |  |  |  | NCc1cccc(-n2nc(C(F)(F)F)cc2C(=O)Nc2cccc(C(O)(CCC3CC3)c3cccnc3)c2)c1 (stereo in doubt; 18)
0.104 |  | 0.0185 |  |  |  |  |  | NCc1cccc(-n2nc(C(F)(F)F)cc2C(=O)Nc2cccc(C(O)(CCC3CC3)c3ccccn3)c2)c1 (stereo unspecified)
0.0077 | 42 | 0.0011 | 95 | 2 |  |  |  | NCc1cccc(-n2nc(C(F)(F)F)cc2C(=O)Nc2cc(C(O)(CCC3CC3)c3ccncc3)ccc2F)c1 (stereo in doubt; 25)
 | 303 |  | 2290 | 40.1 |  |  |  | N#Cc1ccc(C(N)(CCC2CC2)c2ccc(F)c(NC(=O)c3cc(C(F)(F)F)nn3-c3cccc(CN)c3)c2)cc1 (stereo in doubt; 41)
 |  |  |  |  | 224 | 887 | 9 | NCc1cccc(-n2nc(C(F)(F)F)cc2C(=O)Nc2cc(C(O)(CCC3CC3)c3cccnc3)ccc2F)c1 (stereo in doubt; 21)
0.0193 |  | 0.0054 |  |  |  |  |  | NCc1cccc(-n2nc(C(F)(F)F)cc2C(=O)Nc2cccc(C(NCC3CC3)c3ccccc3)c2)c1 (stereo unspecified)
0.0076 | 7 | 0.0013 | 11 |  |  |  |  | NCc1cccc(-n2nc(C(F)(F)F)cc2C(=O)Nc2cccc(C(O)(CCC3CC3)c3ccncc3)c2)c1 (stereo in doubt; 23)
0.003 | 390 | 0.0012 | 1560 | 24.5 |  |  |  | Cc1cc(C(N)(CCC2CC2)c2ccc(F)c(NC(=O)c3cc(C(F)(F)F)nn3-c3cccc(CN)c3)c2)ccn1 (stereo in doubt; 35)
0.0017 | 27 | 0.0023 | 134 |  |  |  |  | NCc1cccc(-n2nc(C(F)(F)F)cc2C(=O)Nc2cc(C(N)(CCC3CC3)c3ccc(C(N)=O)nc3)ccc2F)c1 (single isomer, unassigned; (+))
0.023 |  | 0.0057 |  |  |  |  |  | NCc1cccc(-n2nc(C(F)(F)F)cc2C(=O)Nc2cccc(C(O)(CCC3CC3)c3cccnc3)c2)c1 (stereo in doubt; 8)
0.191 |  | 0.014 |  |  |  |  |  | NCc1cccc(-n2nc(C(F)(F)F)cc2C(=O)Nc2cccc(C(O)(CCC3CC3)c3ccccc3)c2)c1 (stereo in doubt; 6)
 |  | 0.0184 |  |  |  |  |  | Cc1cc(C(N)(CCC2CC2)c2ccc(F)c(NC(=O)c3cc(C(F)(F)F)nn3-c3cccc(CN)c3)c2)ccn1 (stereo in doubt; 36)
0.017 |  | 0.0047 |  |  |  |  |  | NCc1cccc(-n2nc(C(F)(F)F)cc2C(=O)Nc2cccc(C(O)(CCC3CC3)c3ccncc3)c2)c1 (stereo in doubt; 9)
